Columns and labels:
[1] = molecular target: T1, CKα1 (Homo sapiens, UniProt P35790); assay: Choline kinase assay ([methyl-14C]choline into PCho, purified enzyme); format: biochemical; conditions: for IC50: concentration required to inhibit CKα1 enzyme by 50%; for % Inhibition at 10 µM: purified CKα1, inhibitor 10 µM; for % Inhibition at 10 µM / % Inhibition at 30 µM: end-point assay; for % Inhibition at 30 µM: purified CKα1, inhibitor 30 µM
T1 construct: an N-terminally His-tagged truncated form of CKα1 (Δ75–457) was cloned into a pET-28a vector; His tag (N); made in house; host or cells: E. coli BL21 (DE3) Star
Description: The protein was produced and purified as previously described. Briefly, an N-terminally His-tagged truncated form of CKα1 (Δ75–457) was cloned into a pET-28a vector and expressed at 37 °C in E. coli BL21 (DE3) Star cells using 1 mM isopropyl β-D-1-thiogalactopyranoside (IPTG). After centrifugation, the cellular pellet was resuspended in 50 mM Tris-HCl pH 7.5, 500 mM NaCl, 0.2 mM phenylmethylsulphonyl fluoride (PMSF), DNase, and 0.5 mM β-mercaptoethanol, sonicated and subjected to a two-step purification procedure to isolate the target enzyme. […] Protein elution was completed using buffer A + 400 mM imidazole. A second size-exclusion chromatography step was then carried out to achieve complete purity. To this end, we used a HiPrep 26/60 Sephacryl 100 HR column (GE Healthcare, Little Chalfont, Buckinghamshire, UK) and a 20 mM Tris/HCl pH 7.5, 150 mM NaCl running buffer.
To study the effect of the compounds on CKα, an in vitro enzymatic assay was performed using the purified enzyme as previously reported in [19, 28, 29]. Briefly, the incorporation of ^14C from [methyl-^14C]choline into PCho in either the absence (control) or presence of different inhibitors at varying concentrations was used to determine the CK activity. The reaction mixture included 20 ng of purified CKα1, 10 mM ATP, 10 mM MgCl2, 100 mM Tris-HCl pH 8.5, and increasing concentrations of compounds. The mixture was preincubated at 37 °C for 5 min. Then, [methyl-^14C]choline chloride (1 mM, 4500 dpm/nmol) was added and the reaction was left to proceed for 10 min at 37 °C. The assay was stopped by immersing the reaction tubes in boiling water. PCho was separated by Thin Layer Chromatography using methanol/0.6% NaCl/28% NH4OH in water (50:50:5, v/v/v) as solvent. The radioactivity associated into PCho was determined in a Beckman 6000-TA (Madrid, Spain) liquid scintillation counter. The 50% inhibitory concentrations (IC50 values) were determined from the % enzyme activity at different concentrations of synthetic inhibitors relative to the control by using a sigmoidal dose–response curve (ED50plus v1.0 software).

[2] = tested on: A549; assay: Antiproliferative activity, resazurin assay, 72 h; format: cell-based, human
Description: (§1) Human cervix carcinoma (HeLa), Non-small lung adenocarcinoma (A549), Colon adenocarcinoma (HT29), and human triple negative breast cancer (MDA-MB-231) were cultured in Dulbecco’s modified Eagle’s media (DMEM). B-acute lymphoblastic leukemia (RS4;11 and SEM), T-acute lymphoblastic leukemia (Jurkat), and human promyelocytic cells (HL-60), were cultured in RPMI-1640 medium. Both media were purchased from Gibco, Life Technologies (Milan, Italy) and supplemented with 10% Fetal Bovine Serum (FBS, Invitrogen, Milan, Italy,). Every six months, each cell line was checked for the presence of mycoplasma by RT-PCR.
(§2) Stock solutions (10 mM) of the different compounds were made in DMSO. Cancer cells were seeded in tissue-treated, flat bottom, 384-well plates (Corning) according to their optimal density, (A549 1000 cells/wells; MDA-MB-231, HeLa and HT-29 2000 cells/well and finally Jurkat, HL-60 SEM and RS4;11 20.000 cells/well) in 27 µL of complete medium per well.
(§3) The day after cell seeding and immediately before cell treatment, 10 mM stock solutions of the compounds were pre-diluted to a […] concentration in 250 µL of Hank’s in a 96-well plate (Corning). Subsequent 1:5 dilutions were carried out using a microlab STAR 96-CORE liquid handling system (Hamilton), a robotized liquid handling tool that was employed for all steps, from cell seeding to drug dilution and cell treatment to ensure high reproducibility while reducing time for large screening execution. This pre-dilution step was necessary to avoid DMSO-related cytotoxicity and compound precipitation in the cell culture medium. In every case, DMSO concentration never exceeded 0.1%.
(§4) Positive (Bortezomib 1 µM) and negative (0.1% DMSO) controls were included in all the screened plates to allow for monitoring the Z’ factor throughout the entire screening. Cells were treated with 3 µL of the previously made dilutions; thus, generating a 6-point 5-fold dose–response curve starting from 10 µM. Within a plate, each drug concentration was tested in duplicate in two independent experiments for each compound.
(§5) Treated cells were then placed inside the CO2 incubator for 72 h at 37 °C. Cell viability was assessed by resazurin assay, in which 3 µL of resazurin per well were added using the previously described automated platform. Plates were placed in the incubator at 37 °C for 2 h, and then the fluorescence of each plate was read using a Spark 10 M multimode microplate reader (Tecan Group Ltd., Mannedorf, Switzerland) with 535 nm excitation wavelength and 600 nm emission wavelength.

[3] = tested on: HL-60; assay: Antiproliferative activity, resazurin assay, 72 h; format: cell-based, human
Description: as §1, §2, §3, §4, §5

[4] = tested on: HT29; assay: Antiproliferative activity, resazurin assay, 72 h; format: cell-based, human
Description: as §1, §2, §3, §4, §5

[5] = tested on: HeLa; assay: Antiproliferative activity, resazurin assay, 72 h; format: cell-based, human
Description: as §1, §2, §3, §4, §5

[6] = tested on: Jurkat; assay: Antiproliferative activity, resazurin assay, 72 h; format: cell-based, human
Description: as §1, §2, §3, §4, §5

[7] = tested on: MDA-MB-231; assay: Antiproliferative activity, resazurin assay, 72 h; format: cell-based, human
Description: as §1, §2, §3, §4, §5

[8] = tested on: RS 4;11; assay: Antiproliferative activity, resazurin assay, 72 h; format: cell-based, human
Description: as §1, §2, §3, §4, §5

[9] = tested on: SEM cells; assay: Antiproliferative activity, resazurin assay, 72 h; format: cell-based, human
Description: as §1, §2, §3, §4, §5

T1 sequence (P35790 75-457): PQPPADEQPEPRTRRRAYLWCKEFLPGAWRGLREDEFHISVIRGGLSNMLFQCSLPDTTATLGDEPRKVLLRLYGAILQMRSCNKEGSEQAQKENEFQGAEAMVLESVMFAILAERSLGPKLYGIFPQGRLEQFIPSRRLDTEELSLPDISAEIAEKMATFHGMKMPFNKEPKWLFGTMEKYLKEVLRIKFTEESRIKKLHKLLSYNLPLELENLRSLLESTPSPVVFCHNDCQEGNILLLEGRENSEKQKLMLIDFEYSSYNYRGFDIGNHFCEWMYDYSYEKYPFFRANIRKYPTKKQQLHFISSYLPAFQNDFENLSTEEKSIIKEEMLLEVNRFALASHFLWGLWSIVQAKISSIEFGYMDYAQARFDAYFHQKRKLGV

Row | SMILES | IC50 [1] [nM] | % Inhibition at 10 µM [1] [%] | % Inhibition at 30 µM [1] [%] | GI50 [2] [nM] | GI50 [3] [nM] | GI50 [4] [nM] | GI50 [5] [nM] | GI50 [6] [nM] | GI50 [7] [nM] | GI50 [8] [nM] | GI50 [9] [nM]
1 | [Br-].[Br-].c1cc2c(s1)c(N1CCCC1)cc[n+]2Cc1ccc(-c2ccc(C[n+]3ccc(N4CCCC4)c4sccc43)cc2)cc1 [Fg-9] | ≥ 5000 | 75.81 | 94.95 | 250 ± 20 | 9120 ± 1100 | > 10000 | > 10000 | > 10000 | 2020 ± 200 | > 10000 | > 10000
2 | [Br-].[Br-].c1cc2c(s1)c(N1CCCCCC1)cc[n+]2Cc1ccc(-c2ccc(C[n+]3ccc(N4CCCCCC4)c4sccc43)cc2)cc1 [Fg-10] | ≥ 10000 | 80.76 | 96.98 | 310 ± 10 | 440 ± 50 | 1760 ± 200 | 1590 ± 100 | 6330 ± 600 | 1460 ± 200 | 2770 ± 900 | 3510 ± 800
3 | [Br-].[Br-].c1cc2c(s1)c(N1CCCC1)nc[n+]2Cc1ccc(CCc2ccc(C[n+]3cnc(N4CCCC4)c4sccc43)cc2)cc1 [Fg-16] | 1810 ± 170 | 80.28 | 85.87 | 250 ± 20 | 210 ± 30 | 2640 ± 60 | 670 ± 20 | > 10000 | 380 ± 10 | 7270 ± 800 | > 10000
4 | CN(c1ccccc1)c1nc[n+](Cc2ccc(-c3ccc(C[n+]4cnc(N(C)c5ccccc5)c5sccc54)cc3)cc2)c2ccsc12 [Fp-1] | 1060 ± 220 |  |  | 210 ± 20 | 510 ± 50 | 1430 ± 30 | 1660 ± 10 | > 10000 | 900 ± 20 | 2120 ± 200 | 4550 ± 500
5 | [Br-].[Br-].c1cc2c(N3CCCCC3)nc[n+](Cc3ccc(CCCCc4ccc(C[n+]5cnc(N6CCCCC6)c6ccsc65)cc4)cc3)c2s1 [Ff-6] | ≥ 10000 | 46.43 | 73.19 | 190 ± 30 | 190 ± 10 | 930 ± 40 | 420 ± 50 | 6700 ± 800 | 500 ± 20 | 1500 ± 200 | 2520 ± 200
6 | [Br-].[Br-].c1cc2c(N3CCCC3)nc[n+](Cc3ccc(OCCOc4ccc(C[n+]5cnc(N6CCCC6)c6ccsc65)cc4)cc3)c2s1 [Ff-4] | ≥ 10000 | 55.23 | 77.28 | 230 ± 30 | 790 ± 50 | > 10000 | > 10000 | > 10000 | 720 ± 30 | > 10000 | > 10000
7 | CN(c1ccc(Cl)cc1)c1nc[n+](Cc2ccc(-c3ccc(C[n+]4cnc(N(C)c5ccc(Cl)cc5)c5ccsc54)cc3)cc2)c2sccc12 [Fp-8] |  |  |  | 160 ± 10 | 900 ± 80 | 3930 ± 500 | 1770 ± 100 | > 10000 | 830 ± 40 | 3380 ± 50 | > 10000
8 | CN(C)c1cc[n+](Cc2ccc(CCCCc3ccc(C[n+]4ccc(N(C)C)cc4)cc3)cc2)cc1 [MN-48b, reference compound] | 780 ± 30 |  |  | 540 ± 200 | 320 ± 30 | 1900 ± 400 | 1900 ± 100 | 350 ± 100 | 310 ± 120 | 1000 ± 300 | 
